Data: patent US11578055B2, “Triazacyclododecansulfonamide (“TCD”)-based protein secretion inhibitors” (KEZAR LIFE SCIENCES, priority 2018, dated 2023)

What was measured:
[1] = system: PD1 signal sequence plus 10 amino acids fused to Gaussia Luciferase (PD1-ss+10aa/Gaussia Luciferase); experiment: Dox Induced PD1-ss-Gluc Assay; format: cell-based; settings: 24 hr, 293FRT/TO; read-out: 24 hr Dox Inducible PD1ssGluc 293FRT/TO: Mean IC50
How it was run: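 Compound dilutions in DMSO/media containing doxycycline were applied to a stable, inducible 293 T-REx line carrying the luciferase fusion, then incubated at 37 °C, 5% CO2. Where stereochemistry is not drawn, values relate to isomer mixtures.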

[2] = system: full length TNFα (amino acids 1-233) fused to Gaussia Luciferase; experiment: Dox Induced TNFα-FL-Gluc Assay; format: cell-based; settings: 24 hr, 293FRT/TO; read-out: 24 hr Dox Inducible TNFaFLGluc 293FRT/TO: Mean IC50
How it was run: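 Compounds diluted in DMSO/medium with doxycycline were incubated at 37° C, 5% CO2 with 293 T-REx cells stably carrying a Tet-regulated TNFα(1-233)-Gaussia luciferase construct. Data for structures drawn without stereochemistry refer to stereoisomer mixtures.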

[3] = system: multiple myeloma cell line NCl-H929; experiment: H929 Cell Viability Assay; format: cell-based, human; settings: Homo sapiens, NCI-H929, 48 h, H929, read-out: 48 hr H929 Viability Celltiter-Glo: Mean EC50
How it was run: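 Viability was determined by CellTiter-Glo luminescence after a 48 h, 37 °C exposure of NCI-H929 cells to serial compound dilutions in medium containing 10% FBS. Where stereochemistry is not shown, values refer to a mix of stereoisomers.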

[4] = system: multiple myeloma cell line U266B1; experiment: U266 Cell Viability Assay; format: cell-based, human; settings: Homo sapiens, U-266; 48 hr, U266; read-out: 48 hr U266 Viability Celltiter-Glo: Mean EC50
How it was run: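 Viability was measured by CellTiter-Glo luminescence after 48 h compound exposure at 37° C, 5% CO2. The cells were U266B1 multiple myeloma cells grown in RPMI 1640 plus 10% FBS. Where stereochemistry is not shown, values apply to the stereoisomer mixture.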

[5] = In Vitro Microsome Stability Assay (human); format: in vitro ADME; settings: human, 30 min, NADPH
How it was run: (§1)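 The value reported is the percentage of parent left after 30 min, calculated from analyte/IS peak-area ratios relative to time zero by LC-MS/MS. Incubations ran at 37° C in 0.1 M potassium phosphate with NADPH and microsomes (stock 20 mg/mL), with compound added from a 0.25 mM DMSO stock. Acetonitrile containing IS stopped the reactions.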

[6] = In Vitro Microsome Stability Assay (mouse); format: in vitro ADME; settings: mouse, 30 min, NADPH
How it was run: as §1

[7] = In Vitro Microsome Stability Assay (rat); format: in vitro ADME; settings: rat, 30 min, NADPH
How it was run: as §1

[8] = In Vitro Microsome Stability Assay (monkey); format: in vitro ADME; settings: monkey, 30 min, NADPH
How it was run: as §1

| SMILES | IC50 [1] [nM] | IC50 [2] [nM] | EC50 [3] [µM] | EC50 [4] [µM] | Liver Microsome Stability-% Left after 30 min w/ NADPH (%) Human [5] [%] | Liver Microsome Stability-% Left after 30 min w/ NADPH (%) Mouse [6] [%] | Liver Microsome Stability-% Left after 30 min w/ NADPH (%) Rat [7] [%] | Liver Microsome Stability-% Left after 30 min w/ NADPH (%) Monkey [8] [%] |
| --- | --- | --- | --- | --- | --- | --- | --- | --- |
| C=C1CN(S(=O)(=O)c2ccc(N(C)C)cc2)CCCN(CC2CCCCC2)CCCN(S(=O)(=O)N2CC=C(C3=CCCC3)CC2)C1 [A67, 4-{[9-(cyclohexylmethyl)-5-{[4-(cyclopent-1-en-1-yl)-1,2,3,6-tetrahydropyridin-1-yl]sulfonyl}-3-methylidene-1,5,9-triazacyclododecan-1-yl]sulfonyl}-N,N-dimethylaniline] | 40.8 | 937 | 2.4 | > 25 | 33.2 | 28 | 45.4 | 27.6 |
| C=C1CN(S(=O)(=O)c2ccc(N(C)C)cc2)CCCN(CC2CCCCC2)CCCN(S(=O)(=O)N2CC=C(C3=CCCCC3)CC2)C1 [A68, 4-[(5-{[4-(cyclohex-1-en-1-yl)-1,2,3,6-tetrahydropyridin-1-yl]sulfonyl}-9-(cyclohexylmethyl)-3-methylidene-1,5,9-triazacyclododecan-1-yl)sulfonyl}-N,N-dimethylaniline] | 156 | 6440 | > 25 | > 25 | 50.5 | 55.1 | 57.1 | 57.1 |
| C=C1CN(S(=O)(=O)c2ccc(N(C)C)cc2)CCCN(CC2CCCCC2)CCCN(S(=O)(=O)N2CC=C(c3cccc(Cl)c3)CC2)C1 [A69, 4-[(5-{[4-(3-chlorophenyl)-1,2,3,6-tetrahydropyridin-1-yl]sulfonyl}-9-(cyclohexylmethyl)-3-methylidene-1,5,9-triazacyclododecan-1-yl)sulfonyl]-N,N-dimethylaniline] | 136 | > 25000 | > 25 | > 25 | 63 | 64.6 | 74.3 | 58.2 |
| C=C1CN(S(=O)(=O)c2ccc(N(C)C)cc2)CCCN(CC2CCCCC2)CCCN(S(=O)(=O)N2CCc3cc(C#N)ccc3C2)C1 [A70, 2-{[9-(cyclohexylmethyl)-5-[4-(dimethylamino)benzenesulfonyl]-3-methylidene-1,5,9-triazacyclododecan-1-yl]sulfonyl}-1,2,3,4-tetrahydroisoquinoline-6-carbonitrile] | 46.1 | 1300 | 3.02 | > 25 | 1.36 | 3.14 | 6.75 | 3.26 |
| C=C1CN(S(=O)(=O)c2ccc(N(C)C)cc2)CCCN(CC2CCCCC2)CCCN(S(=O)(=O)N2CCc3cc(OC)ccc3C2)C1 [A71, 4-{[9-(cyclohexylmethyl)-5-[(6-methoxy-1,2,3,4-tetrahydroisoquinolin-2-yl)sulfonyl]-3-methylidene-1,5,9-triazacyclododecan-1-yl]sulfonyl}-N,N-dimethylaniline] | 63.3 | 2010 | 7.72 | > 25 | 5.55 | 11.5 | 17.2 | 6.75 |
| C=C1CN(S(=O)(=O)c2ccc(N(C)C)cc2)CCCN(CC2CCCCC2)CCCN(S(=O)(=O)N2CCC(c3ccc(Cl)cc3)CC2)C1 [A72, 4-[(5-{[4-(4-chlorophenyl)piperidin-1-yl]sulfonyl}-9-(cyclohexylmethyl)-3-methylidene-1,5,9-triazacyclododecan-1-yl)sulfonyl]-N,N-dimethylaniline] | 96.2 | 6970 | 10.3 | > 25 | 62.5 | 43.3 | 54.6 | 53.2 |
| C=C1CN(S(=O)(=O)c2ccc(N(C)C)cc2)CCCN(CC2CCCCC2)CCCN(S(=O)(=O)N2CC=C(c3ccccc3Cl)CC2)C1 [A73, 4-[(5-{[4-(2-chlorophenyl)-1,2,3,6-tetrahydropyridin-1-yl]sulfonyl}-9-(cyclohexylmethyl)-3-methylidene-1,5,9-triazacyclododecan-1-yl)sulfonyl]-N,N-dimethylaniline] | 37.3 | 1860 | 3.47 | > 25 | 18.2 | 16.3 | 71.5 | 25.4 |
| C=C1CN(S(=O)(=O)c2ccc(N(C)C)cc2)CCCN(CC2CCCCC2)CCCN(S(=O)(=O)N2CCC(C3CCOCC3)CC2)C1 [A78, 4-{[9-(cyclohexylmethyl)-3-methylidene-5-{[4-(oxan-4-yl)piperidin-1-yl]sulfonyl}-1,5,9-triazacyclododecan-1-yl]sulfonyl}-N,N-dimethylaniline] | 360 | > 25000 | > 25 | > 25 | 0.2 | 0.15 | 0.25 | 0.11 |
| C=C1CN(S(=O)(=O)c2ccc(N(C)C)cc2)CCCN(CC2CCCCC2)CCCN(S(=O)(=O)N2CCC(n3cccn3)CC2)C1 [A79, 4-{[9-(cyclohexylmethyl)-3-methylidene-5-{[4-(1H-pyrazol-1-yl)piperidin-1-yl]sulfonyl}-1,5,9-triazacyclododecan-1-yl]sulfonyl}-N,N-dimethylaniline] | 408 | > 25000 | > 25 | > 25 | 0.16 | 10.6 | 0.1 | 0.06 |
| C=C1CN(S(=O)(=O)c2ccc(N(C)C)cc2)CCCN(CC2CCCCC2)CCCN(S(=O)(=O)N2CCC(c3nc4ccccc4o3)CC2)C1 [A80, 4-[(5-{[4-(1,3-benzoxazol-2-yl)piperidin-1-yl]sulfonyl}-9-(cyclohexylmethyl)-3-methylidene-1,5,9-triazacyclododecan-1-yl)sulfonyl]-N,N-dimethylaniline] | 273 | > 25000 | > 25 | > 25 | 10.8 | 13.4 | 14.1 | 2.56 |
| C=C1CN(S(=O)(=O)c2ccc(N(C)C)cc2)CCCN(CC2CCCCC2)CCCN(S(=O)(=O)N2CCC(c3ncccn3)CC2)C1 [A81, 4-{[9-(cyclohexylmethyl)-3-methylidene-5-{[4-(pyrimidin-2-yl)piperidin-1-yl]sulfonyl}-1,5,9-triazacyclododecan-1-yl]sulfonyl}-N,N-dimethylaniline] | 477 | > 25000 | > 25 | > 25 | 0.2 | 0.12 | 0.12 | 0.03 |
| C=C1CN(S(=O)(=O)c2ccc(N(C)C)cc2)CCCN(CC2CCCCC2)CCCN(S(=O)(=O)N2CCc3nc(Cl)ccc3C2)C1 [A82, 4-({5-[(2-chloro-5,6,7,8-tetrahydro-1,6-naphthyridin-6-yl)sulfonyl]-9-(cyclohexylmethyl)-3-methylidene-1,5,9-triazacyclododecan-1-yl}sulfonyl)-N,N-dimethylaniline] | 30.5 | 1550 | 2.3 | > 25 | 0.3 | 0.08 | 0.16 | 0.23 |
